Measured values reported in the NIST ThermoML archive (doi:10.1021/je9007553).
Several values for one entry are separate records, joined by “and”; a condition that tells them apart may be missing. Equal values may be shown once.

Conditions: Crystal, Calculated from knudsen effusion weight loss

[Br][Al]([Br])[Br] [aluminum bromide]
Conditions	vapor or sublimation pressure
301 K	0.00013 kPa
303 K	0.00018 kPa
306 K	0.00024 kPa
307 K	0.00035 kPa and 0.00034 kPa
309 K	0.00043 kPa and 0.00035 kPa
310 K	0.00045 kPa
312 K	0.00049 kPa and 0.00056 kPa and 0.00046 kPa
312.5 K	0.00054 kPa
314 K	0.00062 kPa
314.5 K	0.00071 kPa
315 K	0.00072 kPa and 0.00068 kPa
315.5 K	0.00085 kPa
316 K	0.00071 kPa
316.5 K	0.00089 kPa
317 K	0.00095 kPa and 0.00083 kPa
317.5 K	0.00089 kPa
318 K	0.00089 kPa
318.5 K	0.00107 kPa and 0.00102 kPa and 0.00112 kPa
320 K	0.00107 kPa and 0.00123 kPa
320.5 K	0.00123 kPa
321 K	0.00135 kPa
321.5 K	0.00141 kPa
323 K	0.00166 kPa [middle of 4 runs]
324 K	0.0017 kPa and 0.00178 kPa
324.5 K	0.00191 kPa
325 K	0.00209 kPa
326 K	0.00204 kPa and 0.00214 kPa
327 K	0.0024 kPa and 0.00282 kPa
327.5 K	0.00234 kPa
328 K	0.00269 kPa and 0.00251 kPa
330 K	0.00363 kPa and 0.00324 kPa
330.5 K	0.00309 kPa
331 K	0.00389 kPa
332.5 K	0.00468 kPa
333 K	0.00457 kPa and 0.00398 kPa
333.5 K	0.00437 kPa
335 K	0.00575 kPa
336 K	0.00575 kPa and 0.00617 kPa and 0.00562 kPa
337 K	0.00724 kPa
338 K	0.00741 kPa and 0.00794 kPa
340 K	0.00933 kPa and 0.00813 kPa
343 K	0.01259 kPa
344 K	0.01288 kPa
345 K	0.01479 kPa
348 K	0.0195 kPa
351 K	0.02512 kPa

[I][Al]([I])[I] [aluminum iodide]
Conditions	vapor or sublimation pressure
359.5 K	7e-05 kPa
361 K	0.0001 kPa
364 K	0.00014 kPa
365 K	0.00019 kPa and 0.00014 kPa
366.5 K	0.00017 kPa
367.5 K	0.00019 kPa
368 K	0.00019 kPa and 0.00025 kPa
368.5 K	0.00025 kPa
369.5 K	0.00025 kPa
371.5 K	0.00027 kPa
372 K	0.0003 kPa and 0.00034 kPa
372.5 K	0.00034 kPa
374.5 K	0.00049 kPa and 0.00039 kPa and 0.00036 kPa
375.5 K	0.00044 kPa
376 K	0.00042 kPa and 0.00049 kPa
377 K	0.00059 kPa and 0.00049 kPa
378 K	0.00054 kPa
378.5 K	0.00059 kPa and 0.00063 kPa
380 K	0.00068 kPa and 0.00071 kPa
380.5 K	0.00083 kPa and 0.00078 kPa
381 K	0.00078 kPa
382 K	0.00083 kPa
383 K	0.00093 kPa
383.5 K	0.00087 kPa
385 K	0.00126 kPa and 0.00102 kPa
385.5 K	0.00112 kPa
387 K	0.00135 kPa
388 K	0.00135 kPa
389 K	0.00186 kPa
390 K	0.0017 kPa and 0.00182 kPa and 0.00174 kPa
391 K	0.0017 kPa and 0.00209 kPa
393 K	0.00245 kPa
393.5 K	0.00214 kPa and 0.00234 kPa
394 K	0.00257 kPa
395 K	0.00251 kPa and 0.00282 kPa
396.5 K	0.00295 kPa
397 K	0.00324 kPa
397.5 K	0.00363 kPa
398 K	0.00347 kPa and 0.00339 kPa
399 K	0.0038 kPa
399.5 K	0.00407 kPa and 0.00417 kPa
400 K	0.00417 kPa
401 K	0.00437 kPa
402 K	0.00537 kPa and 0.00501 kPa
403 K	0.00525 kPa
403.5 K	0.00562 kPa and 0.0055 kPa
404.5 K	0.00562 kPa
405 K	0.00603 kPa and 0.00661 kPa
406 K	0.00759 kPa
407 K	0.00759 kPa
408 K	0.00776 kPa and 0.00794 kPa
408.5 K	0.00871 kPa
409 K	0.00933 kPa
409.5 K	0.00832 kPa
411 K	0.01047 kPa and 0.01023 kPa
412 K	0.01175 kPa and 0.01096 kPa
413 K	0.01288 kPa and 0.01148 kPa
414.5 K	0.01413 kPa
415 K	0.01479 kPa and 0.01445 kPa
416 K	0.01549 kPa and 0.01585 kPa
417 K	0.0166 kPa
417.5 K	0.0182 kPa
419.5 K	0.02188 kPa
